We go through five molecules from patent US5145853A, “Bactericidal formulations for use in veterinary medicine” (Bayer Aktiengesellschaft, priority 1985, dated 1992).

Values after ≈ are worked out from the molar mass of the structure shown. Like-named read-outs stand apart in the source and are kept apart here.

In assay [1] the test system is mycoplasmas mycopneumoniae. Kind of assay: Treatment of mycoplasmoses in pigs. As to conditions: lungs examined on the 34th day. It counts as in vivo, piglets. From the text: Groups of 5 piglets with an average weight of 25 kg were fed with standard piglet feed from the beginning of the test, to which feed the stated quantities of active compound had been added.
On the 4th day after the beginning of the test, the animals were infected with mycoplasmas mycopneumoniae. As from the 10th day the animals were only given feed not containing any active compound. On the 34th day the animals were killed and the lungs were examined for lesions.

The subject of assay [2] is mycoplasma strain no. 8008. Put plainly: Mycoplasmas/Inhibitory concentration test, strain 8008. Type of assay: cell-based. As to the method:
(§1) The test was carried out on microtiter plates. Series of concentrations of the active compound in 0.01 N soda solution were prepared. The concentrations were from 256 μg/ml to 0.0156 μg/ml.
(§2) 0.5 ml of an active compound solution are placed in each identation in the microtiter plate. To this 0.5 ml of an inoculum of mycoplasmas containing about 10^6 organisms per ml were added.
(§3) The inoculum consisted of a modified mycoplasma broth (PPLO) which contained about 20% of horse serum and in which mycoplasmas had been cultured to a titer of about 10^7 organisms per ml (determined by the MacCrady method).
(§4) Then the microtiter plate was incubated at 37° C. and the growth determined after 48, 72 and 96 hours. That concentration of active compound, which prevented any increase in the moculated mycoplasmas was taken as the MIC-value.

The test system of assay [3] is mycoplasma strain no. 4587. Put plainly: Mycoplasmas/Inhibitory concentration test, strain 4587. Type of assay: cell-based. As to the method:
as §1, §2, §3, §4

Assay [4] deals with mycoplasma strain no. 6442. Kind of assay: Mycoplasmas/Inhibitory concentration test, strain 6442. Type of assay: cell-based. How it is done: as §1, §2, §3, §4
In assay [5] the test system is mycoplasma strain no. 348. Put plainly: Mycoplasmas/Inhibitory concentration test, strain 348. Type of assay: cell-based. As to conditions: NO.348, read-out: MIC value, mycoplasma strain no. 348. As to the method:
as §1, §2, §3, §4

Assay [6] has as its system mycoplasma strain no. 81115. Put plainly: Mycoplasmas/Inhibitory concentration test, strain 81115. Type of assay: cell-based. As to the method:
as §1, §2, §3, §4

Assay [7] relates to mycoplasma strain no. 7981. Kind of assay: Mycoplasmas/Inhibitory concentration test, strain 7981. It counts as cell-based. How it is done:
as §1, §2, §3, §4

The subject of the next assay is mycoplasma gallisepticum. Put plainly: Treatment of mycoplasmoses in poultry. It counts as in vivo, chicken. Particulars: for clinical symptoms: animals killed 19 days after infection; for Average weight of the animals after 14: after 14 days; for Average weight of the animals after 19: after 19 days; for Average weight of the animals after 0: day 0 (before treatment). How it is done:
Groups of 40 chicken which were free from mycoplasma gallisepticum and mycoplasma synoviae were infected at the second day after hatching with a pathogenic wild strain of mycoplasma gallisepticum. The treatment began 24 hours after the infection. One group of 40 chickens was not treated and served as a control. The chickens were treated via their drinking water at 5 successive days following the infection. 19 days after the infection the animals were killed, weighed and examined.

The mark [8] stands for this setting: 250 ppm in drinking water, 5 successive days.
Where [9] appears, read: NO.8008, series 256 μg/ml to 0.0156 μg/ml, growth after 48, 72 and 96 hours, 37° C., read-out: MIC value, mycoplasma strain no. 8008.
[10] abbreviates: NO.4587, series 256 μg/ml to 0.0156 μg/ml, growth after 48, 72 and 96 hours, 37° C., read-out: MIC value, mycoplasma strain no. 4587.
The mark [11] stands for this setting: NO.6442, series 256 μg/ml to 0.0156 μg/ml, growth after 48, 72 and 96 hours, 37° C., read-out: MIC value, mycoplasma strain no. 6442.
Where [12] appears, read: NO.81115, series 256 μg/ml to 0.0156 μg/ml, growth after 48, 72 and 96 hours, 37° C., read-out: MIC value, mycoplasma strain no. 81115.
Setting [13] is: NO.7981, series 256 μg/ml to 0.0156 μg/ml, growth after 48, 72 and 96 hours, 37° C., read-out: MIC value, mycoplasma strain no. 7981.
[14] abbreviates: 500 ppm in drinking water, 5 successive days.

By MIC is commonly meant the lowest concentration found to suppress growth. Take `CCN1CCN(c2cc3c(cc2F)c(=O)c(C(=O)O)cn3C2CC2)CC1` [Compound I]: the “result (lung lesions)” value in assay [1] (50 mg/kg in the feed) and in assay [1] (100 mg/kg in the feed) was “no lesions” in each case. Also, the MIC in assay [2] (NO.8008, read-out: MIC value, mycoplasma strain no. 8008) was determined as 0.25 µg/mL (≈ 0.696 µM); in assay [3] (NO.4587, read-out: MIC value, mycoplasma strain no. 4587), 0.5 µg/mL (≈ 1.39 µM); in assay [4] (NO.6442, read-out: MIC value, mycoplasma strain no. 6442), 0.15 µg/mL (≈ 0.417 µM); in assay [5] it was 0.5 µg/mL (≈ 1.39 µM); in assay [6] (NO.81115, read-out: MIC value, mycoplasma strain no. 81115), 0.5 µg/mL (≈ 1.39 µM); in assay [7] (NO.7981, read-out: MIC value, mycoplasma strain no. 7981), 0.5 µg/mL (≈ 1.39 µM). In the assay on mycoplasma gallisepticum (setting [8]), the clinical symptoms result is recorded as “none”. Further, the “Average weight of the animals after 14” value in the assay with mycoplasma gallisepticum (setting [8]) is 355.7. For the same molecule, in the assay with mycoplasma gallisepticum (setting [8]), the “Average weight of the animals after 19” value turned out to be 463.8. Further, the “Average weight of the animals after 0” value with mycoplasma gallisepticum (250 ppm in drinking water) was 47.3.

For `C=C[C@]1(C)C[C@@H](OC(=O)CSCCN(CC)CC)[C@]2(C)[C@H](C)CC[C@]3(CCC(=O)[C@H]32)[C@@H](C)[C@@H]1O` [Tiamulin], the “result (lung lesions)” value in assay [1] (200 mg/kg in the feed, control 10%) amounted to 5%.

In the case of `CC1CCc2cc(F)cc3c(=O)c(C(=O)O)cn1c23` (stereo not drawn) [flumequine], the MIC in assay [2] (setting [9]), in assay [3] (setting [10]), in assay [4] (setting [11]), in assay [5], in assay [6] (setting [12]) and in assay [7] (setting [13]) was 256 µg/mL (≈ 980 µM) throughout.

Turning to `CCn1cc(C(=O)O)c(=O)c2ccc(C)nc21` [nalidixic acid], the MIC in assay [2] (setting [9]), in assay [3] (setting [10]), in assay [4] (setting [11]), in assay [5], in assay [6] (setting [12]) and in assay [7] (setting [13]) was 128 µg/mL (≈ 551 µM) throughout.

Tylocin: in the assay on mycoplasma gallisepticum (setting [14]), the clinical symptoms entry is recorded as “clearly noticeable”, the “Average weight of the animals after 14” value is reported as 311.9 and the “Average weight of the animals after 19” value was found to be 426.3. Besides, in the assay on mycoplasma gallisepticum (500 ppm in drinking water, 5 successive days, groups of 40 chickens), the “animals dead (clinical symptoms)” value was “no animals dead”. In addition, in the assay with mycoplasma gallisepticum (500 ppm in drinking water), the “Average weight of the animals after 0” value came to 48.4.
